Assays:
[1] = tested on: Tel12 (DNA, G4) TAGGGTTAGGGT; experiment: UV melting at 295 nm; details: KCl 0.1 M; NaCacodylate 2.5 mM, pH 7.0; ligand 1.75 × 10^-5 M, Tel12 1.87 × 10^-5 M
[2] = tested on: Tel23 (DNA, G4) TAGGGTTAGGGTTAGGGTTAGGG; experiment: UV melting at 295 nm; details: KCl 0.1 M; NaCacodylate 2.5 mM, pH 7.0; ligand 1.40 × 10^-5 M, Tel23 1.38 × 10^-5 M
[3] = tested on: Tel12 (DNA, G4) TAGGGTTAGGGT; experiment: UV-vis titration, HypSpec2014 fit; details: KCl 0.1 M, NaCacodylate 2.5 mM, pH 7.0, 25 °C
[4] = tested on: Tel23 (DNA, G4) TAGGGTTAGGGTTAGGGTTAGGG; experiment: UV-vis titration, HypSpec2014 fit; details: KCl 0.1 M; NaCacodylate 2.5 mM, pH 7.0, 25 °C
[5] = tested on: Tel12 (DNA, G4) TAGGGTTAGGGT; experiment: X-ray crystallography; details: K+ in channel

Structure (SMILES) | ΔTm [1] [°C] | ΔTm [2] [°C] | LogK [3] | LogK [4] | binding ([5]; 0.05 M KCacodylate, 0.1 M Li2SO4, pH 6.5, 20% v/v PEG400) | binding ([5]; 0.1 M NaI in crystallizing solution, 0.05 M NaCacodylate pH 6.5, 35% v/v MPD) | LogK ([3]; 1:1 step, further 1:2 ligand:G4 adduct also fitted)
COc1ccc2c(CCCCCc3ccncc3)c3[n+](cc2c1OC)CCc1cc2c(cc1-3)OCO2 | 15.0 ± 1.4 | 5.1 ± 1.1 | 7.2 ± 0.2 | 5.6 ± 0.2 | – | – | –
COc1ccc2c(CCCCc3ccncc3)c3[n+](cc2c1OC)CCc1cc2c(cc1-3)OCO2 | 8.7 ± 1.5 | 5.9 ± 1.0 | 7.0 ± 0.2 | 5.2 ± 0.2 | yes | – | –
COc1ccc2c(CCCc3ccncc3)c3[n+](cc2c1OC)CCc1cc2c(cc1-3)OCO2 | 16.7 ± 1.3 | 2.3 ± 0.6 | 6.6 ± 0.2 | 5.8 ± 0.2 | – | – | –
COc1ccc2c(CCc3ccncc3)c3[n+](cc2c1OC)CCc1cc2c(cc1-3)OCO2 | 9.7 ± 1.8 | 4.1 ± 0.8 | 6.1 ± 0.2 | 4.0 ± 0.3 | – | yes | –
COc1ccc2c(Cc3ccncc3)c3[n+](cc2c1OC)CCc1cc2c(cc1-3)OCO2 | 14.4 ± 1.5 | 4.1 ± 0.4 | – | 4.4 ± 0.2 | – | – | 6.0 ± 0.2
